Where two headings read alike, the source gives them in different places.
Assay: Hydrolysis of pro-drugs at biologically relevant pHs (half-lives)
Type: physicochemical
Description: The behaviors of the eight pro-drugs synthesized were then validated by hydrolysis at various biologically relevant pHs: 4.3, 5.0, 6.0 for the pHs that can be found in acidic vesicles at various maturation degrees, and at pH 7.3 for the physiological and neutral pH. As one can see, the R substituent on the phenyl group is highly important for the modulation of the kinetics of the release. In the case of the two hydroxamic acid pro-drugs, the best system appeared to be the di-p-toluyl one (R=Me), with a half-life of 10–20 h at the moderately acidic pH of lysosomes. Other solutions were too stable or rapidly hydrolyzed. In the case of the benzamide drug, the best system was the diphenyl one (R=H). When a group with an electron donating effect was present on the phenyl rings, the benzamide pro-drugs were decomposed very quickly in a time range that limit the accurateness of the kinetic measurements.
The synthesis of pro-drugs (Scheme 1), the determination of the hydrolysis rates of pro-drugs in mildly acidic pH [25, 26], the pro-drug-functionalized macromonomer-PEO-CI994 (17), the pro-drug-functionalized macro-monomer-PEO-SAHA (16), the pro-drug-functionalized macro-monomer-PEO-NODH (15), and the synthesis of the pro-drug functionalized nanoparticles (NPs) (Figure 1), and the biological tests are developed in the supporting information part.

[1] = buffer, pH 4.3, read-out: Half-life (converted)
[2] = buffer, pH 7.3, read-out: Half-life (converted)
[3] = buffer, pH 5.0, read-out: Half-life (converted)
[4] = buffer, pH 6.0, read-out: Half-life (converted)

Row | Compound | half-life (pH 4.3, result in words) | half-life (pH 5.0, result in words) | half-life (pH 6.0, result in words) | half-life (pH 7.3, result in words) | half-life [1] | half-life [2] | half-life [3] | half-life [4]
1 | C#CCOCCOCCOCCOCCn1cc(C(ONC(=O)CCCCCCC(=O)Nc2ccccc2)(c2ccccc2)c2ccccc2)nn1 [Compound 6a] | Stable | Stable | Stable | Stable | – | – | – | –
2 | C#CCOCCOCCOCCOCCn1cc(C(ONC(=O)CCCCCCC(=O)Nc2ccccc2)(c2ccc(OC)cc2)c2ccc(OC)cc2)nn1 [Compound 6c] | – | – | – | – | 0.5 h | 0.567 h | 1.33 h | 1.8 h
3 | C#CCOCCOCCOCCOCCn1cc(C(ONC(=O)/C=C/C(C)=C/C2(C)Oc3cc(N(C)C)ccc3C2=O)(c2ccccc2)c2ccccc2)nn1 (stereo not shown) [Compound 8a] | stable | stable | – | Stable | – | – | – | –
4 | C#CCOCCOCCOCCOCCn1cc(C(Nc2ccccc2NC(=O)c2ccc(NC(C)=O)cc2)(c2ccc(OC)cc2)c2ccc(OC)cc2)nn1 [Compound 7c] | – | – | – | – | < 0.0167 h | – | < 0.0833 h | < 0.0833 h
5 | C#CCOCCOCCOCCOCCn1cc(C(Nc2ccccc2NC(=O)c2ccc(NC(C)=O)cc2)(c2ccc(C)cc2)c2ccc(C)cc2)nn1 [Compound 7b] | – | – | – | – | < 0.0167 h | – | 0.2 h | 0.167 h
6 | C#CCOCCOCCOCCOCCn1cc(C(Nc2ccccc2NC(=O)c2ccc(NC(C)=O)cc2)(c2ccccc2)c2ccccc2)nn1 [Compound 7a] | – | – | – | – | – | – | 6.67 h | 48 h
7 | C#CCOCCOCCOCCOCCn1cc(C(ONC(=O)CCCCCCC(=O)Nc2ccccc2)(c2ccc(C)cc2)c2ccc(C)cc2)nn1 [Compound 6b] | – | – | – | – | 20 h | 96 h | – | 80 h
